Here are results for 21 compounds from patent publication US20230146675A1, “PYRIMIDO[5,4-d]PYRIMIDINE DERIVATIVES AS ENT INHIBITORS FOR THE TREATMENT OF CANCERS, AND COMBINATION THEREOF WITH ADENOSINE RECEPTOR ANTAGONISTS” (ITEOS BELGIUM SA, priority 2020, published 2023).

The structures appear in SMILES notation. pIC50: −log10 of the molar value.

In general, pIC50 refers to −log10 of the IC50, conventionally taken in molar units.

The target of the assay is T1, human ENT1 (Homo sapiens, UniProt Q99808).
T1 sequence (Q99808 1-456): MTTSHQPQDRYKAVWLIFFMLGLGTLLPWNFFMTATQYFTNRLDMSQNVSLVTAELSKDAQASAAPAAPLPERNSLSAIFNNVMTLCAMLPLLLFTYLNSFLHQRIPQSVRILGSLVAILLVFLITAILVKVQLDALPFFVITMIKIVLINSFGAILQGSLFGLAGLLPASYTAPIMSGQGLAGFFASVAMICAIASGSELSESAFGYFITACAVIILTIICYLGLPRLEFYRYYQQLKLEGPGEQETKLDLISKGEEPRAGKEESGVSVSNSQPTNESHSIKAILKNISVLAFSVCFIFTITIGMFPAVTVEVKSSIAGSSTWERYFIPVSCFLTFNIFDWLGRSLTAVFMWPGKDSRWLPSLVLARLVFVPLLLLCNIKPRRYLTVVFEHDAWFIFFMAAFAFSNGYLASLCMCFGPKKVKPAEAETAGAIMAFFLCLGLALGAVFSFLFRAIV
Nature of the assay: ENT1 binding assay (competition with Sahenta-DY647 on JAR cells). On the set-up: JAR cells expressing ENT1 were bought from ATCC; host or cells: JAR cells. The conditions noted are these: binned IC50. The method, then:
Purpose. […] By measuring the fluorescence at the end of the assay we could assess the binding potency of the compounds of the present invention.
JAR cells were resuspended in the described buffer. Compounds of the present invention and Sahenta-DY647 were diluted 200× in the described buffer.
The total volume of the reaction was 100 μL (50 μL of cells, 25 μL of the compounds of the present invention and 25 μL of Sahenta-DY647) in a 96 well plate, U-bottom (Greiner®, #650-180). The plates were washed 2× by centrifugation (4 min, 400 rcf at 4° C.) in the same buffer.
Compound `COCCN(CCOC)c1nc(N2CCC(OC)CC2)c2nc(N(CCOC)CCOCCN3CCOCC3)nc(N3CCC(OC)CC3)c2n1` [Compound 45, N2,N2,N6-tris(2-methoxyethyl)-4,8-bis(4-methoxypiperidin-1-yl)-N6-(2-(2-morpholinoethoxy)ethyl)pyrimido[5,4-d]pyrimidine-2,6-diamine] gave a negative logarithm of the IC50 (pIC50) of 6.30 to 7.00. For `COCCN(CCOC)c1nc(N2CCC(OC)CC2)c2nc(N(CCOC)CCOC)nc(NCC3CCOCC3)c2n1` [Compound 46, N2,N2,N6,N6-tetrakis(2-methoxyethyl)-8-(4-methoxypiperidin-1-yl)-N4-((tetrahydro-2H-pyran-4-yl)methyl)pyrimido[5,4-d]pyrimidine-2,4,6-triamine] the value was 6.30 to 7.00. `COCCN(CCOC)c1nc(N2CCC(OC)CC2)c2nc(N(CCOC)CCOC)nc(NCc3ccc(OC)cc3)c2n1` [Compound 47, N4-(4-methoxybenzyl)-N2,N2,N6,N6-tetrakis(2-methoxyethyl)-8-(4-methoxypiperidin-1-yl)pyrimido[5,4-d]pyrimidine-2,4,6-triamine] showed a pIC50 of 6.30 to 7.00.

With `COCCN(CCOC)c1nc(N2CCC(OC)CC2)c2nc(N(CCOC)CCOC)nc(NCc3cccc(OC)c3)c2n1` [Compound 48, N4-(3-methoxybenzyl)-N2,N2,N6,N6-tetrakis(2-methoxyethyl)-8-(4-methoxypiperidin-1-yl)pyrimido[5,4-d]pyrimidine-2,4,6-triamine], the pIC50 is over 7.00. The same measure for `COCCN(CCOC)c1nc(N2CCC(OC)CC2)c2nc(N(CCOC)CCOC)nc(NCc3ccccc3)c2n1` [Compound 49, N4-benzyl-N2,N2,N6,N6-tetrakis(2-methoxyethyl)-8-(4-methoxypiperidin-1-yl)pyrimido[5,4-d]pyrimidine-2,4,6-triamine]: over 7.00. The same measure for `COCCN(CCOC)c1nc(N2CCC(OC)CC2)c2nc(N(CCOC)CCOC)nc(NCC(C)(C)C)c2n1` [Compound 50, N2,N2,N6,N6-tetrakis(2-methoxyethyl)-8-(4-methoxypiperidin-1-yl)-N4-neopentylpyrimido[5,4-d]pyrimidine-2,4,6-triamine]: 6.30 to 7.00; for `COCCCNc1nc(N(CCOC)CCOC)nc2c(N3CCC(OC)CC3)nc(N(CCOC)CCOC)nc12` [Compound 51, N2,N2,N6,N6-tetrakis(2-methoxyethyl)-8-(4-methoxypiperidin-1-yl)-N4-(3-methoxypropyl)pyrimido[5,4-d]pyrimidine-2,4,6-triamine]: 6.00 to 6.30. Turning to `CCOCCCNc1nc(N(CCOC)CCOC)nc2c(N3CCC(OC)CC3)nc(N(CCOC)CCOC)nc12` [Compound 52, N4-(3-ethoxypropyl)-N2,N2,N6,N6-tetrakis(2-methoxyethyl)-8-(4-methoxypiperidin-1-yl)pyrimido[5,4-d]pyrimidine-2,4,6-triamine], the pIC50 was 6.00 to 6.30. For `COCCN(CCOC)c1nc(N2CCC(OC)CC2)c2nc(N(CCOC)CCOC)nc(NCc3ccc(C(F)(F)F)nc3)c2n1` [Compound 53, N2,N2,N6,N6-tetrakis(2-methoxyethyl)-8-(4-methoxypiperidin-1-yl)-N4-((6-(trifluoromethyl)pyridin-3-yl)methyl)pyrimido[5,4-d]pyrimidine-2,4,6-triamine] the value was 6.00 to 6.30; for `CCCCNc1nc(N(CCOC)CCOC)nc2c(N3CCC(OC)CC3)nc(N(CCOC)CCOC)nc12` [Compound 54, N4-butyl-N2,N2,N6,N6-tetrakis(2-methoxyethyl)-8-(4-methoxypiperidin-1-yl)pyrimido[5,4-d]pyrimidine-2,4,6-triamine], over 7.00; for `COCCN(CCOC)c1nc(N2CCC(OC)CC2)c2nc(N(CCOC)CCOC)nc(NCC3CCCC3)c2n1` [Compound 55, N4-(cyclopentylmethyl)-N2,N2,N6,N6-tetrakis(2-methoxyethyl)-8-(4-methoxypiperidin-1-yl)pyrimido[5,4-d]pyrimidine-2,4,6-triamine], 6.30 to 7.00.

`COCCN(CCOC)c1nc(N2CCC(OC)CC2)c2nc(N(CCOC)CCOC)nc(NCCOc3ccccc3)c2n1` [Compound 56, N2,N2,N6,N6-tetrakis(2-methoxyethyl)-8-(4-methoxypiperidin-1-yl)-N4-(2-phenoxyethyl)pyrimido[5,4-d]pyrimidine-2,4,6-triamine] showed a pIC50 of 6.30 to 7.00.

Compound `COCCN(CCOC)c1nc(N2CCC(OC)CC2)c2nc(N(CCOC)CCOC)nc(NCC3CCOC3)c2n1` (stereo not drawn) [Compound 57, N2,N2,N6,N6-tetrakis(2-methoxyethyl)-8-(4-methoxypiperidin-1-yl)-N4-((tetrahydrofuran-3-yl)methyl)pyrimido[5,4-d]pyrimidine-2,4,6-triamine] gave a negative logarithm of the IC50 (pIC50) of 6.00 to 6.30. Compound `COCCN(CCOC)c1nc(N2CCC(OC)CC2)c2nc(N(CCOC)CCOC)nc(NCc3nccs3)c2n1` [Compound 58, N2,N2,N6,N6-tetrakis(2-methoxyethyl)-8-(4-methoxypiperidin-1-yl)-N4-(thiazol-2-ylmethyl)pyrimido[5,4-d]pyrimidine-2,4,6-triamine] showed a pIC50 of 6.00 to 6.30. The same measure for `COCCN(CCOC)c1nc(N2CCC(OC)CC2)c2nc(N(CCOC)CCOC)nc(NCc3cncs3)c2n1` [Compound 59, N2,N2,N6,N6-tetrakis(2-methoxyethyl)-8-(4-methoxypiperidin-1-yl)-N4-(thiazol-5-ylmethyl)pyrimido[5,4-d]pyrimidine-2,4,6-triamine]: 6.30 to 7.00. The same measure for `COCCN(CCOC)c1nc(N2CCC(OC)CC2)c2nc(N(CCOC)CCOC)nc(NCc3cnco3)c2n1` [Compound 60, N2,N2,N6,N6-tetrakis(2-methoxyethyl)-8-(4-methoxypiperidin-1-yl)-N4-(oxazol-5-ylmethyl)pyrimido[5,4-d]pyrimidine-2,4,6-triamine]: 6.00 to 6.30. The same measure for `COCCN(CCOC)c1nc(N2CCC(OC)CC2)c2nc(N(CCOC)CCOC)nc(NCc3ccncc3)c2n1` [Compound 61, N2,N2,N6,N6-tetrakis(2-methoxyethyl)-8-(4-methoxypiperidin-1-yl)-N4-(pyridin-4-ylmethyl)pyrimido[5,4-d]pyrimidine-2,4,6-triamine]: 6.00 to 6.30; for `COCCN(CCOC)c1nc(N2CCC(OC)CC2)c2nc(N(CCOC)CCOC)nc(NCc3cccnc3)c2n1` [Compound 62, N2,N2,N6,N6-tetrakis(2-methoxyethyl)-8-(4-methoxypiperidin-1-yl)-N4-(pyridin-3-ylmethyl)pyrimido[5,4-d]pyrimidine-2,4,6-triamine]: 6.00 to 6.30. As to `COCCN(CCOC)c1nc(N2CCC(OC)CC2)c2nc(N(CCOC)CCOC)nc(NCCc3cccnc3)c2n1` [Compound 63, N2,N2,N6,N6-tetrakis(2-methoxyethyl)-8-(4-methoxypiperidin-1-yl)-N4-(2-(pyridin-3-yl)ethyl)pyrimido[5,4-d]pyrimidine-2,4,6-triamine], the pIC50 is 6.30 to 7.00. In the case of `COCCN(CCOC)c1nc(N2CCC(OC)CC2)c2nc(N(CCOC)CCOC)nc(NCCc3ccncc3)c2n1` [Compound 64, N2,N2,N6,N6-tetrakis(2-methoxyethyl)-8-(4-methoxypiperidin-1-yl)-N4-(2-(pyridin-4-yl)ethyl)pyrimido[5,4-d]pyrimidine-2,4,6-triamine], the pIC50 is 6.30 to 7.00. `COCCN(CCOC)c1nc(N2CCC(OC)CC2)c2nc(N(CCOC)CCOC)nc(NCc3cnn(C)c3)c2n1` [Compound 65, N2,N2,N6,N6-tetrakis(2-methoxyethyl)-8-(4-methoxypiperidin-1-yl)-N4-((1-methyl-1H-pyrazol-4-yl)methyl)pyrimido[5,4-d]pyrimidine-2,4,6-triamine] showed a pIC50 of 6.00 to 6.30.
